Key:
Format in all cases: cell-based
[1] = molecular target: T1, serotonin transporter (SERT) (Homo sapiens, UniProt P31645); test: Serotonin reuptake inhibition, [3H]-5-HT, HEK-293 cells transfected with 5-HT transporter cDNA; details: for Triple reuptake inhibition (Ratio %) SERT: compound 1 μM, [3H]-5-HT, relative to control without compound = 100%, lower value = more inhibition; for IC50: concentration at which Ratio % is 50%, 6 concentrations 1 nM to 1 μM, read-out: Triple reuptake inhibition (IC50, μM) SERT
T1 construct: expressed in transfected cells; host or cells: HEK-293
Method: (§1) In order to evaluate the reuptake inhibitory effect of the compounds of the Examples according to the present invention on serotonin, norepinephrine and dopamine, the experiments below were performed, and the results are shown in Table 17.
(§2) To evaluate the reuptake inhibition effect on dopamine, the dopamine transporter cDNA was transfected using the HEK-293 cell line, and then sub-seeded in a 24 well plate the next day. After removing the medium, each compound of the Examples or Comparative Examples diluted to 1 μM in uptake buffer was added to a concentration of 200 μl/well and cultured at 37° C. for 15 minutes. 100 μl of uptake buffer containing 20-30 nM [3H]-DA was added and cultured at 37° C. for 5 minutes. The reaction solution was quickly removed and washed three times with 1 ml ice-cold uptake buffer. After dissolving the resultant in 1% SDS (0.5 ml), the degree of binding of radioisotope-labeled dopamine to the transporter was measured.
(§3) For norepinephrine (NE) and serotonin (5-HT), the degree of binding of radioisotope-labeled norepinephrine or serotonin to the transporter was measured in the same manner as above, except that cells transfected with NE or 5-HT transporter cDNA were used and [3H]—NE or [3H]-5-HT was used as a substrate.
(§4) In addition, when evaluating the reuptake inhibitory effect on dopamine, norepinephrine, and serotonin, the same method was performed without treating each compound of the Examples or Comparative Examples as a control, the degree of binding of radioisotope-labeled dopamine, norepinephrine, and serotonin to the transporter was measured, and by using this as a reference (100%), the triple reuptake inhibitory effect was evaluated as a relative ratio (Ratio %). That is, in the control group, the binding of dopamine, norepinephrine, and serotonin to transporters is not inhibited, but when each compound of the Examples is treated and thus the binding is inhibited, the Ratio % value decreases.
(§5) Meanwhile, the Ratio % values were compared, and in the case of the compounds of Examples 6, 10, 13, 14, 17, 20, 21, 22, 30, 31, 32, 34, 36, 38, 39, 40, 54, 55, 56, 57, 58 and 73 with excellent reuptake inhibitory effects on dopamine, norepinephrine and serotonin, the concentration at which the Ratio % is 50% was calculated using a total of 6 concentrations (1 nM, 5 nM, 10 nM, 50 nM, 100 nM, and 1 μM) and expressed as IC50.

[2] = molecular target: T2, dopamine transporter (DAT) (Homo sapiens, UniProt Q01959); test: Dopamine reuptake inhibition, [3H]-DA, HEK-293 cells transfected with dopamine transporter cDNA; details: for Triple reuptake inhibition (Ratio %) DAT: compound 1 μM, 20-30 nM [3H]-DA, relative to control without compound = 100%, lower value = more inhibition; for IC50: concentration at which Ratio % is 50%, 6 concentrations 1 nM to 1 μM, read-out: Triple reuptake inhibition (IC50, μM) DAT
T2 construct: expressed in transfected cells; host or cells: HEK-293
Method: as §1, §2, §4, §5

[3] = molecular target: T3, norepinephrine transporter (NET) (Homo sapiens, UniProt P23975); test: Norepinephrine reuptake inhibition, [3H]-NE, HEK-293 cells transfected with NE transporter cDNA; details: for Triple reuptake inhibition (Ratio %) NET: compound 1 μM, [3H]-NE, relative to control without compound = 100%, lower value = more inhibition; for IC50: concentration at which Ratio % is 50%, 6 concentrations 1 nM to 1 μM, read-out: Triple reuptake inhibition (IC50, μM) NET
T3 construct: expressed in transfected cells; host or cells: HEK-293
Method: as §1, §2, §3, §4, §5

T3 sequence (P23975 whole entry, species assumed): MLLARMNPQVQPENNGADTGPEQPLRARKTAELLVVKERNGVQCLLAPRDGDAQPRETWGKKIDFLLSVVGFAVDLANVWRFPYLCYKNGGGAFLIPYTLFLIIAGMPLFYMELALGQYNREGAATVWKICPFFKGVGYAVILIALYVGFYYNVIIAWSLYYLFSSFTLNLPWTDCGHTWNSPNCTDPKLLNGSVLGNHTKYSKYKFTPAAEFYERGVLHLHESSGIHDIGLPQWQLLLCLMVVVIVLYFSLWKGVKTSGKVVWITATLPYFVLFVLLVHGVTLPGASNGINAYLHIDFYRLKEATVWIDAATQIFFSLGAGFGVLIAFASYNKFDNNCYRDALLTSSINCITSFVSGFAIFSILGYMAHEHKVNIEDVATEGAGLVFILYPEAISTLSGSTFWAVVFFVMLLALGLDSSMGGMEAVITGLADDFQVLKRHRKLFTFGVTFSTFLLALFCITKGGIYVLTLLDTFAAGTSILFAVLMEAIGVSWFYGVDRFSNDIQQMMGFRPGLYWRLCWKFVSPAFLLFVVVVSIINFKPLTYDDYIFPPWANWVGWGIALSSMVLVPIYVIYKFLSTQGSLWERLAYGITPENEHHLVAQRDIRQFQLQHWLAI
T1 sequence (P31645 whole entry, species assumed): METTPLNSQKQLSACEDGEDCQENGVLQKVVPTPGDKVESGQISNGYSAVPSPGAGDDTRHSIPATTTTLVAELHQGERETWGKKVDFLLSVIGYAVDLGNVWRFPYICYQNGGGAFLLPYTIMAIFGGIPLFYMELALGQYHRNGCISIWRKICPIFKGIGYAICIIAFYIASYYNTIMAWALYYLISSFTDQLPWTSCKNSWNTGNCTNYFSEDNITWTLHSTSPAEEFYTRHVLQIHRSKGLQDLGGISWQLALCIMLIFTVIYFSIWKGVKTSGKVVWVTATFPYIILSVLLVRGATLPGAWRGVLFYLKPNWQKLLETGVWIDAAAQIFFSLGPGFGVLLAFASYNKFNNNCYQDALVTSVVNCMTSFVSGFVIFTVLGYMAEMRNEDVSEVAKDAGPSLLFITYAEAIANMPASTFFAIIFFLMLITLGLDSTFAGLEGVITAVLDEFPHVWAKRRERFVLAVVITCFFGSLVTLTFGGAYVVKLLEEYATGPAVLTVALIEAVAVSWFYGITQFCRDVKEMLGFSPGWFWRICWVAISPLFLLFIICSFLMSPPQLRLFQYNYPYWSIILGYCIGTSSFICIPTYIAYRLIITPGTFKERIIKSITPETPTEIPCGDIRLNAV
T2 sequence (Q01959 whole entry, species assumed): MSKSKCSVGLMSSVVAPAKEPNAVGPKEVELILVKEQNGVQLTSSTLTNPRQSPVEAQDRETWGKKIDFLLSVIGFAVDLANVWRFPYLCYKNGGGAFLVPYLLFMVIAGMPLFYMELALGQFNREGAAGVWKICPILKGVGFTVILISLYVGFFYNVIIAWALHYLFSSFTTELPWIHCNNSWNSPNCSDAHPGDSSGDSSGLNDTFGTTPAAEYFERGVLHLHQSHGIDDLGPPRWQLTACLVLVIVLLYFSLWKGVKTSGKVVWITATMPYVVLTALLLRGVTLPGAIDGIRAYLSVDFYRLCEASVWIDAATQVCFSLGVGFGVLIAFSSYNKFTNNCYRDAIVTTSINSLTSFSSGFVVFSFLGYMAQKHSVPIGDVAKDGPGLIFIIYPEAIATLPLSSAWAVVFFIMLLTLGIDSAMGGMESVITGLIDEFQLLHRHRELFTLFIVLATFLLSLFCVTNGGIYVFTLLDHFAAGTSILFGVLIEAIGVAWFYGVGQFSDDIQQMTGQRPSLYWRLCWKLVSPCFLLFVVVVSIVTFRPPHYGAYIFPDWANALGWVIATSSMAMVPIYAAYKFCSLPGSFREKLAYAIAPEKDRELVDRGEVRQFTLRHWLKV

SMILES | Triple reuptake inhibition (Ratio %) SERT [1] [%] | Triple reuptake inhibition (Ratio %) DAT [2] [%] | Triple reuptake inhibition (Ratio %) NET [3] [%] | IC50 [1] [µM] | IC50 [2] [µM] | IC50 [3] [µM]
O=S(=O)(NCCN1CCN(c2ccc(Cl)cc2)CC1)c1ccc(-c2ccccc2)cc1 [Example 52, N-(2-(4-(4-chlorophenyl)piperazin-1-yl)ethyl)-[1,1′-biphenyl]-4-sulfonamide] | 47.19 | 68.53 | 64.45 | – | – | –
O=S(=O)(NCCN1CCN(c2ccc(Cl)cc2)CC1)c1ccc2ccccc2n1 [Example 53, N-(2-(4-(4-chlorophenyl)piperazinyl)ethyl)quinolin-2-sulfonamide] | 47.19 | 68.53 | 64.45 | – | – | –
O=S(=O)(NCCCN1CCC(Cc2ccccc2)CC1)c1ccc2ccccc2c1 [Example 54, N-(3-(4-benzylpiperidin-1-yl)propyl)naphthalen-2-sulfonamide] | 46.95 | 45.75 | 36.68 | 1.94 | 0.948 | 1.25
O=S(=O)(NCCCN1CCC(Cc2ccccc2)CC1)c1cccc2ccccc12 [Example 55, N-(3-(4-benzylpiperidin-1-yl)propyl)naphthalen-1-sulfonamide] | 46.18 | 35.21 | 31.83 | 1.45 | 1.55 | 1.3
O=S(=O)(NCCCN1CCC(Cc2ccccc2)CC1)c1ccc(-c2ccccc2)cc1 [Example 56, N-(3-(4-benzylpiperidin-1-yl)propyl)-[1,1′-biphenyl]-4-sulfonamide] | 56.50 | 61.90 | 68.65 | 0.75 | 0.42 | 0.641
O=S(=O)(NCCCN1CCC(Cc2ccccc2)CC1)c1ccc2ccccc2n1 [Example 57, N-(3-(4-benzylpiperidin-1-yl)propyl)quinolin-2-sulfonamide] | 53.66 | 13.09 | 30.54 | 0.345 | 4.48 | 1.35
O=S(=O)(NCCCN1CCC(Cc2ccccc2)CC1)c1ccc(-c2ccc(F)cc2)cc1 [Example 58, N-(3-(4-benzylpiperidin-1-yl)propyl)-4′-fluoro-[1,1′-biphenyl]-4-sulfonamide] | 50.76 | 55.51 | 44.79 | 1.84 | 0.647 | 0.429
O=S(=O)(NCCCN1CCC(Cc2ccccc2)CC1)c1ccc(-c2ccc(Cl)cc2)cc1 [Example 59, N-(3-(4-benzylpiperidin-1-yl)propyl)-4′-chloro-[1,1′-biphenyl]-4-sulfonamide] | 29.78 | 15.16 | 44.79 | – | – | –
Cc1ccc(-c2ccc(S(=O)(=O)NCCCN3CCC(Cc4ccccc4)CC3)cc2)cc1 [Example 60, N-(3-(4-benzylpiperidin-1-yl)propyl)-4′-methyl-[1,1′-biphenyl]-4-sulfonamide] | 17.76 | 9.15 | 44.79 | – | – | –
COc1ccc(-c2ccc(S(=O)(=O)NCCCN3CCC(Cc4ccccc4)CC3)cc2)cc1 [Example 61, N-(3-(4-benzylpiperidin-1-yl)propyl)-4′-methoxy-[1,1′-biphenyl]-4-sulfonamide] | 30.78 | 29.62 | 44.79 | – | – | –
O=S(=O)(NCCCN1CCC(c2ccccc2)CC1)c1cccc2ccccc12 [Example 63] | 64.15 | 80.21 | 34.97 | – | – | –
O=S(=O)(NCCCN1CCC(c2ccccc2)CC1)c1ccc2ccccc2n1 [Example 65, N-(3-(4-phenylpiperidin-1-yl)propyl)quinolin sulfonamide] | 56.73 | 89.88 | 45.04 | – | – | –
O=S(=O)(NCCCN1CCN(Cc2ccccc2)CC1)c1cccc2ccccc12 [Example 67] | 49.64 | 83.08 | 87.27 | – | – | –
O=S(=O)(NCCCN1CCN(c2ccc(Cl)cc2)CC1)c1ccc2ccccc2c1 [Example 70, N-(3-(4-(4-chlorophenyl)piperazin-1-yl)propyl)naphthalen-2-sulfonamide] | 45.16 | 86.5 | 87.27 | – | – | –
O=S(=O)(NCCCN1CCN(c2ccc(Cl)cc2)CC1)c1cccc2ccccc12 [Example 71, N-(3-(4-(4-chlorophenyl)piperazin-1-yl)propyl)naphthalen-1-sulfonamide] | 47.19 | 68.53 | 64.45 | – | – | –
O=S(=O)(NCCCN1CCN(c2ccc(Cl)cc2)CC1)c1ccc(-c2ccccc2)cc1 [Example 72, N-(3-(4-(4-chlorophenyl)piperazin-1-yl)propyl)-[1,1′-biphenyl]-4-sulfonamide] | 47.19 | 68.53 | 64.45 | – | – | –
O=S(=O)(NCCCN1CCN(c2ccc(Cl)cc2)CC1)c1ccc2ccccc2n1 [Example 73, N-(3-(4-(4-chlorophenyl)piperazin-1-yl)propyl)quinolin-2-sulfonamide] | 47.19 | 68.53 | 64.45 | 0.102 | – | –
O=S(=O)(NCCCN1CCC(CCCc2ccccc2)CC1)c1ccc(-c2ccc(F)cc2)cc1 [Example 74, 4′-fluoro-N-(3-(4-(3-phenylpropyl)piperidin-1-yl)propyl)-[1,1′-biphenyl]-4-sulfonamide] | 61.48 | 76.23 | 44.79 | – | – | –
O=S(=O)(NCCCN1CCC(CCCc2ccccc2)CC1)c1ccc(-c2ccccc2)cc1 [Example 75, N-(3-(4-(3-phenylpropyl)piperidin-1-yl)propyl)-[1,1′-biphenyl]-4-sulfonamide] | 61.48 | 76.23 | 44.79 | – | – | –
O=S(=O)(NCCCN1CCN(CCCc2ccccc2)CC1)c1ccc(-c2ccccc2)cc1 [Example 76, N-(3-(4-(3-phenylpropyl)piperazin-1-yl)propyl)-[1,1′-biphenyl]-4-sulfonamide] | 44.91 | 19.97 | 44.79 | – | – | –
O=S(=O)(NCCCCN1CCC(Cc2ccccc2)CC1)c1ccc(-c2ccccc2)cc1 [Example 77, N-(4-(4-benzylpiperidin-1-yl)butyl)-[1,1′-biphenyl]-4-sulfonamide] | 40.45 | 25.71 | 44.79 | – | – | –
